According to PubChem BioAssay (NCI):
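At the GI50, growth is halved. Definition used: TGI = concentration required for complete inhibition of growth.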

Assays:
Assay in all cases: NCI-60 cell line screen, 384-well format
K-562 leukemia = system: K-562 leukemia
MALME-3M melanoma = system: MALME-3M melanoma
OVCAR-3 ovarian = system: OVCAR-3 ovarian
786-0 renal = system: 786-0 renal
PC-3 prostate = system: PC-3 prostate
MCF7 breast = system: MCF7 breast
UACC-257 melanoma = system: UACC-257 melanoma
M14 melanoma = system: M14 melanoma
MDA-MB-468 breast = system: MDA-MB-468 breast
NCI-H226 lung = system: NCI-H226 lung
IGROV1 ovarian = system: IGROV1 ovarian
T-47D breast = system: T-47D breast
SNB-19 CNS = system: SNB-19 CNS

SMILES	GI50 (K-562 leukemia) [nM]	TGI (K-562 leukemia) [nM]	GI50 (MALME-3M melanoma) [nM]	TGI (MALME-3M melanoma) [nM]	GI50 (OVCAR-3 ovarian) [nM]	TGI (OVCAR-3 ovarian) [nM]	GI50 ([…]-0 renal) [nM]	TGI (786-0 renal) [nM]	GI50 (PC-3 prostate) [nM]	TGI (PC-3 prostate) [nM]	GI50 (MCF7 breast) [nM]	TGI (MCF7 breast) [nM]	GI50 (UACC-257 melanoma) [nM]	TGI (UACC-257 melanoma) [nM]	GI50 (M14 melanoma) [nM]	TGI (M14 melanoma) [nM]	GI50 (MDA-MB-468 breast) [nM]	TGI (MDA-MB-468 breast) [nM]	GI50 (NCI-H226 lung) [nM]	TGI (NCI-H226 lung) [nM]	other results
Cc1[nH]c2ccccc2c1CCNCc1ccc(/C=C/C(=O)NO)cc1	< 10	14.8	< 10	16.3	16.7	43.7	21.4	114	14.2	39.9	< 11	25.9	< 10.7	24.4	14.7	82.2	< 10	17.9	35.9	133	GI50 (IGROV1 ovarian): 10.8 nM; TGI (IGROV1 ovarian): 26.4 nM; GI50 (T-47D breast): < 10.9 nM; TGI (T-47D breast): 21.4 nM; GI50 (SNB-19 CNS): 23.4 nM; TGI (SNB-19 CNS): 65.3 nM
COCCNc1cc(NC(=O)N2CCCc3cc(CN4CCN(C)CC4=O)c(C=O)nc32)ncc1C#N	22200	> 100000	> 100000	> 100000	> 69300	> 100000	> 100000	> 100000	> 100000	> 100000	> 100000	> 100000	> 100000	> 100000	> 100000	> 100000	4830	> 100000	> 100000	> 100000	GI50 (IGROV1 ovarian): > 100000 nM; TGI (IGROV1 ovarian): > 100000 nM; GI50 (T-47D breast): > 77700 nM; TGI (T-47D breast): > 100000 nM; GI50 (SNB-19 CNS): > 100000 nM; TGI (SNB-19 CNS): > 100000 nM
